According to publication PMC7044277 (Nature Communications, 2020):
Where “and” joins values, the source holds several entries; their conditions need not be identical. Identical values can stand only once.

How the values were obtained:
Assay type in all cases: cell-based
[1] = molecular target: T1, 320 non-olfactory GPCRs (Homo sapiens, UniProt P13945)
T1 construct: expressed in transfected cells; host or cells: HTLA cells

[2] = molecular target: T2, 320 non-olfactory GPCRs (Homo sapiens, UniProt P41231); conditions: receptor P2RY2; replicate values, Fig_4g
T2 construct: expressed in transfected cells; host or cells: HTLA cells
T2 sequence (P41231 whole entry): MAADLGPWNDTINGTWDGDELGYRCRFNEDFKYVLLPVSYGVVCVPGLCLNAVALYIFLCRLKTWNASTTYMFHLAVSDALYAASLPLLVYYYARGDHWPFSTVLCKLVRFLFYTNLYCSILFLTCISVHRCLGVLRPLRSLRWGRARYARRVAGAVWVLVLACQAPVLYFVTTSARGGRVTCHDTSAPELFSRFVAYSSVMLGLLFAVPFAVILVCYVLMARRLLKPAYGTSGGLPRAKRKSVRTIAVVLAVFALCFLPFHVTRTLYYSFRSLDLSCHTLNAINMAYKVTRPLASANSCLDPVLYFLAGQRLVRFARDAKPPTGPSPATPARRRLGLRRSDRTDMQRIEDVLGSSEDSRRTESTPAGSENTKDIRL

[3] = molecular target: 320 non-olfactory GPCRs (Homo sapiens, UniProt Q16581)
Sequence of 320 non-olfactory GPCRs (Homo sapiens, UniProt Q16581) (Q16581 whole entry): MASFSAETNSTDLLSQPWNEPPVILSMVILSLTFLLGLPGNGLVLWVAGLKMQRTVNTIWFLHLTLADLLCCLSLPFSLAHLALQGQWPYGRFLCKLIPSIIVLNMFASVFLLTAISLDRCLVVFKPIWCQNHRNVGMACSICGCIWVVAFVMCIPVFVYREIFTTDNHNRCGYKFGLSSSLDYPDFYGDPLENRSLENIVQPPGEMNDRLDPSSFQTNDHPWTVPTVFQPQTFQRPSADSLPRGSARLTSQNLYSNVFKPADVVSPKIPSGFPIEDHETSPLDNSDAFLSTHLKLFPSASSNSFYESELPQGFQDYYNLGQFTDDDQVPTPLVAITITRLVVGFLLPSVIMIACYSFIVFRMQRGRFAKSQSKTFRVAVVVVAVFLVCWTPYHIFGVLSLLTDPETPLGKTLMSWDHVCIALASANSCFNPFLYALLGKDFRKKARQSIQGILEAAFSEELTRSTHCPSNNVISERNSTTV

[4] = molecular target: T3, 320 non-olfactory GPCRs (Homo sapiens, UniProt Q8TDV5)
T3 construct: expressed in transfected cells; host or cells: HTLA cells
T3 sequence (Q8TDV5 whole entry): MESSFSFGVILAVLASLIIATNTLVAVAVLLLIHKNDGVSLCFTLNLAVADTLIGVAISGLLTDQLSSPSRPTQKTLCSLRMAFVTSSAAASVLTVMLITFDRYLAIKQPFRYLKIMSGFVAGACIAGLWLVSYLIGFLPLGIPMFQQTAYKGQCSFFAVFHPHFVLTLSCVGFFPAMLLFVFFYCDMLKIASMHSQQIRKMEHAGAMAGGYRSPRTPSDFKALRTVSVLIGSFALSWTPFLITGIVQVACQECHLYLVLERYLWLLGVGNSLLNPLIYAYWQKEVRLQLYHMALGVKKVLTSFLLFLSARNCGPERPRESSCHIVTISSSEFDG
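For Fold of Basal in this document: compound tested at 1 µM final concentration.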
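For GPCRome agonism screen response in this document: fold over basal response of each receptor without drug.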

T1 sequence (P13945 whole entry): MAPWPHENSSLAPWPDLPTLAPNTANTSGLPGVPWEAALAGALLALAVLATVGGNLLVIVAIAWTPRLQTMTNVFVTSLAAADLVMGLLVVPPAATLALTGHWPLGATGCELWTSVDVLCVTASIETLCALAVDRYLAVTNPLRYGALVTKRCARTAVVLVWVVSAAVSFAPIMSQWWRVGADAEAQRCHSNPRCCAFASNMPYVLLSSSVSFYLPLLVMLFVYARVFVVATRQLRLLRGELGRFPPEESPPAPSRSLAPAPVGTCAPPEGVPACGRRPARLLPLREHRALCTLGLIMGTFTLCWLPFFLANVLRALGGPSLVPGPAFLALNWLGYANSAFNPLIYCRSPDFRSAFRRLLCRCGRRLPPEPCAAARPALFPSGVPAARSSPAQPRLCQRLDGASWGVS

SMILES: CCOc1cccc2cc(C(C)NCC3(O)CCCCC3)oc12 (stereo not shown) [O4LE6]
- Fold of Basal [1]: 1.471 and 1.539 and 1.208 and 0.8362
- GPCRome agonism screen response [2]: 1.397 and 0.7849 and 2.272 and 0.7466
- Fold of Basal [3]: 1.165 and 1.05 and 0.9669 and 0.8841
- Fold of Basal [4]: 0.5971 and 0.6704 and 0.4797 and 0.8296
